Consider 1 compound from US8906395B2, “Pharmaceutical composition in which solubility of partially soluble tricyclic derivative is improved” (Jeil Pharmaceutical Co., Ltd., priority 2010, dated 2014).

The structures appear in SMILES notation. In brackets after ≈: the same amount, converted by molar mass.

One data set deals with cancer cell lines. The following applies: cited from earlier work.
Data set [1] can be described thus: Solubility of tricyclic derivative compound in solubilizing agents (HPLC). The data set is classed as physicochemical. How it is done:
The solubility of the tricyclic derivative compound in a solubilizing agent was measured in the following manner.

A further data set relates to HUVEC cells. Particulars: cited from earlier work.
Data set [2] in a line: Solubility of tricyclic derivative compound in water (HPLC). The following applies: distilled water, room temperature, stirred 24 hours, 0.2 μm filtrate. It counts as physicochemical. As to the method:
The solubility of the tricyclic derivative compound of Formula 1 in water was measured in the following manner.
1.42 mg of the tricyclic derivative compound was dissolved in acetonitrile to prepare […] of a solution which was then serially diluted to prepare 50 μl/ml, 20 μl/ml and 10 μl/ml of standard solutions. 3-ethoxythiocolchicine as an internal standard was added to each of the standard solutions which were then analyzed by HPLC to measure the area ratio of the tricyclic derivative compound.
Then, 1 g of the tricyclic derivative compound was added to 10 ml of distilled water to make a suspension which was then stirred at room temperature for 24 hours to sufficiently dissolve the compound. Then, the suspension was filtered through a 0.2 μm membrane to remove insoluble materials, and the remaining filtrate was analyzed by HPLC using 3-ethoxythiocolchicine as an internal standard to measure the area ratio of the tricyclic derivative compound, which was then compared with the area ratio of the standard curve shown in FIG. 1, thereby determining the concentration of the tricyclic derivative compound dissolved in water.

For data set [3] the following is noted: compared to a colchicine or taxol injection; cited from earlier work.
The next data set deals with tumor. Particulars: in vivo; cited from earlier work.

Broadly, the solubility is the concentration that dissolves in the medium under given conditions.

In the case of `CCOc1cc2c(c(OC)c1OC)-c1ccc(SC)c(=O)cc1[C@@H](NC(=O)c1cccc(CO[N+](=O)[O-])c1F)CC2` [tricyclic derivative compound], in the data set on cancer cell lines, the “cytotoxicity against cancer cell lines” value is recorded as “very strong cytotoxicity”. The Solubility result in data set [1] (PEG 400:water 0:100), in data set [1] (solvent: 5% aqueous solution of hydrochloric acid), in data set [1] (solvent: 5% aqueous solution of sodium hydrogen carbonate), in data set [1] (solvent: 5% aqueous solution of sodium oxide) and in data set [1] (solvent: Water) was “Not detected” each time. In addition, the solubility at 24 h in data set [1] (PEG 400:water 10:90, aqueous with cosolvent or surfactant or cyclodextrin) worked out at 0.21 µg/mL (≈ 0.359 µM); in data set [1] (PEG 400:water 20:80, aqueous with cosolvent or surfactant or cyclodextrin), 2.94 µg/mL (≈ 5.03 µM); in data set [1] (PEG 400:water 30:70, aqueous with cosolvent or surfactant or cyclodextrin), 1.24 µg/mL (≈ 2.12 µM); in data set [1] (PEG 400:water 40:60, aqueous with cosolvent or surfactant or cyclodextrin) it was 53.9 µg/mL (≈ 92.3 µM); in data set [1] (PEG 400:water 50:50, aqueous with cosolvent or surfactant or cyclodextrin), 189 µg/mL (≈ 323 µM); in data set [1] (PEG 400:water 100:0, organic solvent or mixture), 52000 µg/mL (≈ 89000 µM). Besides, the solubility at 24 h in data set [1] (benzyl alcohol, organic solvent or mixture, solvent: Benzylalcohol) was over 103000 µg/mL; in data set [1] (organic solvent or mixture, solvent: Ethanol), 35 µg/mL (≈ 59.9 µM); in data set [1] (organic solvent or mixture, solvent: Glycerin) it was 4.8 µg/mL (≈ 8.21 µM); in data set [1] (organic solvent or mixture, solvent: N,N-dimethylacetamide), over 218000 µg/mL; in data set [1] (organic solvent or mixture, solvent: Polyethylene glycol 400 (PEG 400)) it was 52000 µg/mL (≈ 89000 µM); in data set [1] (organic solvent or mixture, solvent: Propylene glycol), 2300 µg/mL (≈ 3930 µM). Moreover, the angiogenesis inhibitory activity result in the data set with HUVEC cells is recorded as “strong angiogenesis inhibitory activity”. Further, in data set [2], the solubility in water was found to be 0.00 μl/ml. Also, the “toxicity in animal toxicity test” value in data set [3] was “significantly reduced toxicity”. Besides, in the data set with tumor, the “tumor size and weight” value was “significantly reduces the tumor size and weight”.
